From patent US20210238184A1, “THERAPEUTIC COMPOUNDS” (Genentech, Inc., priority 2018, published 2021)

Assays:
[1] = molecular target: TEAD2 YAP50-100 (Homo sapiens, UniProt Q15562); test: TEAD2:YAP50-100 protein-protein interaction HTRF (TR-FRET) assay; settings: His-tagged TEAD YAP binding domain (aa 217-447), biotinylated YAP peptide aa 50-100; 30 min pre-incubation, 60 min at room temperature; read-out: TEAD2 YAP50-100 HTRF WuXi EC50
Experimental: (§1) Purified His-tagged TEAD protein (YAP Binding Domain, amino acids 217-447) is pre-incubated with Europium labelled anti-His antibody tracer (Perkin Elmer Cat #AD0110). Small molecule Inhibitors are then incubated with the TEAD-Eu protein complex for 30 minutes to allow for binding to TEAD protein. Biotinylated YAP peptide (AA's 50-100) that has been pre-incubated with streptavidin x1665 acceptor (CIS-Bio Cat #610SAXAC) is added to the compound-TEAD mix. The TEAD-YAP-inhibitor mixture is then incubated for 60 minutes at room temperature. All reactions are carried out in a polystyrene plate. After 60 minutes, the plate is read on a plate reader using TR-FRET mode with wavelengths of 665 nm/615 nm. If YAP binds to TEAD as expected, a TR-FRET signal results from the proximity of YAP and TEAD after binding. If an inhibitor such as peptide 17 (Selleckchem Cat #S8164) interferes with YAP-TEAD binding, the disruption of the YAP:TEAD interaction results in a decrease in TR-FRET signal. The potency of compounds as YAP:TEAD protein-protein interaction (PPi) inhibitors is determined by an IC50 or EC50 value generated using a non-linear four parameter curve fit.

[2] = molecular target: TEAD3 YAP50-100 (Homo sapiens, UniProt Q99594); test: TEAD3:YAP50-100 protein-protein interaction HTRF (TR-FRET) assay; settings: His-tagged TEAD YAP binding domain (aa 217-447), biotinylated YAP peptide aa 50-100; 30 min pre-incubation, 60 min at room temperature; read-out: TEAD3 YAP50-100 HTRF WuXi EC50
TEAD3 YAP50-100, sequence (Q99594 216-435 limits assumed): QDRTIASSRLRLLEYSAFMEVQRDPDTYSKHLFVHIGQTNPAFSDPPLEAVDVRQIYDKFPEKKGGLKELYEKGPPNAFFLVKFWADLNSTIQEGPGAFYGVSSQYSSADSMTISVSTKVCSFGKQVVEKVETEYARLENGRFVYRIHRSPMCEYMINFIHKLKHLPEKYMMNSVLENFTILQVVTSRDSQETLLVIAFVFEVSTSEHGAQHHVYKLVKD
Experimental: as §1

TEAD2 YAP50-100, sequence (Q15562 217-447): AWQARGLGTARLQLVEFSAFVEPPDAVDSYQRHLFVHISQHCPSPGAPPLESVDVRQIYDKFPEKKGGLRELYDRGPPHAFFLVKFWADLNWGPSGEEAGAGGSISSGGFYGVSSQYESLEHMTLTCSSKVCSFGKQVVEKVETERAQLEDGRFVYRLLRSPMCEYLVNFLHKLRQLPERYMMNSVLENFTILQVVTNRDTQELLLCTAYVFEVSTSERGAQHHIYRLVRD

| SMILES | EC50 [1] [nM] | EC50 [2] [nM] |
| --- | --- | --- |
| CCN(C)C(=O)c1cnn2c(=O)cc(-c3ccc(C4CCCCC4)cc3)[nH]c12 [Example 6, 5-(4-Cyclohexylphenyl)-N-ethyl-N-methyl-7-oxo-4,7-dihydropyrazolo[1,5-a]pyrimidine-3-carboxamide] | 67 | 18 |
| CCOC(=O)c1cnn2c(=O)cc(-c3ccc(C4CCCC4)cc3)[nH]c12 [Example 2, Ethyl 5-(4-cyclopentylphenyl)-7-oxo-4,7-dihydropyrazolo[1,5-a]pyrimidine-3-carboxylate] | 120 | 19 |
| O=C(c1cnn2c(=O)cc(-c3ccc(C4CCCCC4)cc3)[nH]c12)N1CCC1 [Example 8, 3-(Azetidine-1-carbonyl)-5-(4-cyclohexylphenyl)pyrazolo[1,5-a]pyrimidin-7(4H)-one] | 38 | 23 |
| CN(C)C(=O)c1cnn2c(=O)cc(-c3ccc(C4CCCC4(C)C)cc3)[nH]c12 (single isomer, unassigned) [Example 22] | 378 | 42 |
| CCOC(=O)c1cnn2c(=O)cc(-c3ccc(N4CCCCC4)cc3)[nH]c12 [Example 18, Ethyl 7-oxo-5-(4-(piperidin-1-yl)phenyl)-4,7-dihydropyrazolo[1,5-a]pyrimidine-3-carboxylate] | 7350 | 239 |
| CCOC(=O)c1cnn2c(=O)cc(-c3ccc(OC4CCCCC4)cc3)[nH]c12 [Example 13, Ethyl 5-(4-(Cyclohexyloxy)phenyl)-7-oxo-4,7-dihydropyrazolo[1,5-a]pyrimidine-3-carboxylate] | 793 | 66 |
| CCOC(=O)c1cnn2c(=O)cc(-c3ccc(C(F)(F)F)cc3)[nH]c12 [Example 23, Ethyl 7-oxo-5-(4-(trifluoromethyl)phenyl)-4,7-dihydropyrazolo[1,5-a]pyrimidine-3-carboxylate] | 1780 | 834 |

Now from value to molecule:

| EC50 [1] [nM] | EC50 [2] [nM] | SMILES |
| --- | --- | --- |
| 211 | 3510 | O=C(NC1CC1)c1cnn2c(=O)cc(-c3ccc(C(F)(F)F)cc3)[nH]c12 [Example 27, N-Cyclopropyl-7-oxo-5-(4-(trifluoromethyl)phenyl)-4,7-dihydropyrazolo[1,5-a]pyrimidine-3-carboxamide] |
| 3700 | 175 | CCOC(=O)c1cnn2c(=O)cc(-c3ccc(N(C)CC4CC4)cc3)[nH]c12 [Example 32, Ethyl 5-(4-((cyclopropylmethyl)(methyl)amino)phenyl)-7-oxo-4,7-dihydro pyrazolo[1,5-a]pyrimidine-3-carboxylate] |
| 8.79 | 52.2 | N#C[C@@H]1CCN(C(=O)c2cnn3c(=O)cc(-c4ccc(C5CCCCC5)cc4)[nH]c23)C1 [Example 37, (R)-1-(5-(4-Cyclohexylphenyl)-7-oxo-4,7-dihydropyrazolo[1,5-a]pyrimidine-3-carbonyl)pyrrolidine-3-carbonitrile] |
| 212 | 10400 | CNC(=O)c1cnn2c(=O)cc(-c3ccc(C(F)(F)F)cc3)[nH]c12 [Example 25, N-methyl-7-oxo-5-(4-(trifluoromethyl)phenyl)-4,7-dihydropyrazolo[1,5-a]pyrimidine-3-carboxamide] |
| 12 | 27 | O=C(c1cnn2c(=O)cc(-c3ccc(C4CCCCC4)cc3)[nH]c12)N1CC(C(F)F)C1 [Example 38, 5-(4-Cyclohexylphenyl)-3-(3-(difluoromethyl)azetidine-1-carbonyl)pyrazolo[1,5-a]pyrimidin-7(4H)-one] |
| 80 | 4380 | CCNC(=O)c1cnn2c(=O)cc(-c3ccc(C(F)(F)F)cc3)[nH]c12 [Example 24, N-Ethyl-7-oxo-5-(4-(trifluoromethyl)phenyl)-4,7-dihydropyrazolo[1,5-a]pyrimidine-3-carboxamide] |
